Assay results published in ChEMBL document CHEMBL5291721, “A preclinical secondary pharmacology resource illuminates target-adverse drug reaction associations of marketed drugs” (Nat Commun, 2023).

How the values were obtained:
D(1A) dopamine receptor [1] = molecular target: T1, D(1A) dopamine receptor (Homo sapiens, UniProt P21728)
[2] = molecular target: Sodium-dependent serotonin transporter (Homo sapiens, UniProt P31645)
Progesterone receptor [3] = molecular target: T2, Progesterone receptor (Homo sapiens, UniProt P06401)
T2 sequence (P06401 whole entry): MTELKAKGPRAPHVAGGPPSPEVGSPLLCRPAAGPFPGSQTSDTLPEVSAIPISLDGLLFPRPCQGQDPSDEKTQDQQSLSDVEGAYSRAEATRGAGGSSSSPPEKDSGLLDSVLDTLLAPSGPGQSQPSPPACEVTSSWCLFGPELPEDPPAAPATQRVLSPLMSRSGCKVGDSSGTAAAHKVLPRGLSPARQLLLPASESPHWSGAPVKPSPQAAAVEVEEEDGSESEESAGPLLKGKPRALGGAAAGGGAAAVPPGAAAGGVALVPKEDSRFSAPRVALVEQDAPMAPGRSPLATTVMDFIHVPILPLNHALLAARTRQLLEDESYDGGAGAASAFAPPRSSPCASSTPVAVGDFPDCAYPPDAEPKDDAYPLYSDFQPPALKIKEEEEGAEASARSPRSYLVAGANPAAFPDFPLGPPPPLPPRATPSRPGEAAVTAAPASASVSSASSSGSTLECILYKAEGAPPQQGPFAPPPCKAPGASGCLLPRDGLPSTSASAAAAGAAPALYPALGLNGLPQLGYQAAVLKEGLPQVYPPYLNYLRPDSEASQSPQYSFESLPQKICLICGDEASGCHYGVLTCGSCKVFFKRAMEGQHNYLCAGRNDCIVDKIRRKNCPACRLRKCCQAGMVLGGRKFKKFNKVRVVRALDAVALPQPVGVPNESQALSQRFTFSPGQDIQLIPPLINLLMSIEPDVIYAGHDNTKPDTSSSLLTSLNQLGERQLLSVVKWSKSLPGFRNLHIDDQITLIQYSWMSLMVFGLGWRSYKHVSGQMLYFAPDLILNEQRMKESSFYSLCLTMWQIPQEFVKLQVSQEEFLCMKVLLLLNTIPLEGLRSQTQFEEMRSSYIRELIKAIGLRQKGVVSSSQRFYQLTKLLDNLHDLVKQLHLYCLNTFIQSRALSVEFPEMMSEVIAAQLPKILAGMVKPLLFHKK

Adenosine receptor A3 = molecular target: T3, Adenosine receptor A3 (Homo sapiens, UniProt P0DMS8)
T3 sequence (P0DMS8 whole entry): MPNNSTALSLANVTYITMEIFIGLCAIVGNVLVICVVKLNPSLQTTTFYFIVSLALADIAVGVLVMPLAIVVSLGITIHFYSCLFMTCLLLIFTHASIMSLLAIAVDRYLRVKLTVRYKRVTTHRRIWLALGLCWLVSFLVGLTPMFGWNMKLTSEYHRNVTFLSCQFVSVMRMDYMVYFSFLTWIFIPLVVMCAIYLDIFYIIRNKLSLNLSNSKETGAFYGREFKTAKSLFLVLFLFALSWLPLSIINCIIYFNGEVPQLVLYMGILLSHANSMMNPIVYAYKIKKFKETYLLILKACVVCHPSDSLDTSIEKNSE

Histamine H2 receptor = Histamine H2 receptor (Homo sapiens, UniProt P25021); assay type: functional, cell-based
Sequence of Histamine H2 receptor (P25021 whole entry): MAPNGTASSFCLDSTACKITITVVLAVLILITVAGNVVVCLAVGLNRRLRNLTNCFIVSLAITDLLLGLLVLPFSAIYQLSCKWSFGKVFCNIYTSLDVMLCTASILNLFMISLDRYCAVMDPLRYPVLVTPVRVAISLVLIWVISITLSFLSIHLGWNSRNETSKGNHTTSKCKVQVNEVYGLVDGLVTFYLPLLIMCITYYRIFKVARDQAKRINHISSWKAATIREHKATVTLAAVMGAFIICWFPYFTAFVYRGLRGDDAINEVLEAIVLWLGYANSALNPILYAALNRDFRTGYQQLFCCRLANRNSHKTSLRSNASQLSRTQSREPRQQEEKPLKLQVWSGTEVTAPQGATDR

[4] = molecular target: T4, Alpha-1A adrenergic receptor (Homo sapiens, UniProt P35348); assay type: functional, cell-based
T4 sequence (P35348 whole entry): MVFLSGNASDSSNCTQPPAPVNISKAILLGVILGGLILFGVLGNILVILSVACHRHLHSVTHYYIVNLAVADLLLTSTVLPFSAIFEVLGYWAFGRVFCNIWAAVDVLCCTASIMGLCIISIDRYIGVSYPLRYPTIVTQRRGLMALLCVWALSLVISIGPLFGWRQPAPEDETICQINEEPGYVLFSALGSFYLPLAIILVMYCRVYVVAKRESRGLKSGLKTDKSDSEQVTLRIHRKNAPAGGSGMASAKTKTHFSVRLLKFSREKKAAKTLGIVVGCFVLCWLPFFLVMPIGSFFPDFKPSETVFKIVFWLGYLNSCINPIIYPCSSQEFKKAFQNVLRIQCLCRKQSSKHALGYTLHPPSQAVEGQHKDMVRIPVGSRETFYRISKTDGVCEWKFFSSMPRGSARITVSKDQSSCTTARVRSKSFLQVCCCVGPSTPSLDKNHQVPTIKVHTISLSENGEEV

D(1A) dopamine receptor [5] = molecular target: T1, D(1A) dopamine receptor; assay type: functional, cell-based
[6] = molecular target: T5, Equilibrative nucleoside transporter 1 (Homo sapiens, UniProt Q99808)
T5 sequence (Q99808 whole entry): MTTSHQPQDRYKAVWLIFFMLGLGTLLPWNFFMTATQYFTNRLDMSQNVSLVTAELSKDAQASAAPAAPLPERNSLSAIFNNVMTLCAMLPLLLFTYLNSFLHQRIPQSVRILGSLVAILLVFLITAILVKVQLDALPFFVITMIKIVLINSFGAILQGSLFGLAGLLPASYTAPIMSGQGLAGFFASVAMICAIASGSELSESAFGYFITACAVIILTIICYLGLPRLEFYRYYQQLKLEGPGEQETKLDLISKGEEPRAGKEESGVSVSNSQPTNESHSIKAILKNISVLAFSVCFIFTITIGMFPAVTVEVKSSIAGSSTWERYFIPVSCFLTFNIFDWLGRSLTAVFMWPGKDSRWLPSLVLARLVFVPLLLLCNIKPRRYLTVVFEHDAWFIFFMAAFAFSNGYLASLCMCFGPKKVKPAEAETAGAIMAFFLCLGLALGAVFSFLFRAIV

Progesterone receptor [7] = molecular target: T2, Progesterone receptor; assay type: functional
Note: assay procedure not described here.

Sequence of Sodium-dependent serotonin transporter (P31645 whole entry): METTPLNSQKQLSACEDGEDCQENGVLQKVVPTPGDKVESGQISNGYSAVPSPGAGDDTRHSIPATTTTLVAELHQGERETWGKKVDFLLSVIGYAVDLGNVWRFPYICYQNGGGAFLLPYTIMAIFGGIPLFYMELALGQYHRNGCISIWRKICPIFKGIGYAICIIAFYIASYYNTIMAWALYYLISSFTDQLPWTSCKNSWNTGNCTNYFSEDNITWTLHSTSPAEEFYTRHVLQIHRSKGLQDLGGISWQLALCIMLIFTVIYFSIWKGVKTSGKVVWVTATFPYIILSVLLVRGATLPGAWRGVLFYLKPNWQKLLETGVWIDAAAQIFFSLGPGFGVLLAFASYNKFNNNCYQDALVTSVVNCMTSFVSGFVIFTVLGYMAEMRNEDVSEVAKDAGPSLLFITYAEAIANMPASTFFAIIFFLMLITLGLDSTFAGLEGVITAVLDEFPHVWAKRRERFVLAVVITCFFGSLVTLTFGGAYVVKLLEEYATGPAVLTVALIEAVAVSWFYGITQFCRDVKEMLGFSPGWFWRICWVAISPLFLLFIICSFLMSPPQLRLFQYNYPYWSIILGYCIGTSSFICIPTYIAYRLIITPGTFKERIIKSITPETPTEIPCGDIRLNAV
T1 sequence (P21728 whole entry): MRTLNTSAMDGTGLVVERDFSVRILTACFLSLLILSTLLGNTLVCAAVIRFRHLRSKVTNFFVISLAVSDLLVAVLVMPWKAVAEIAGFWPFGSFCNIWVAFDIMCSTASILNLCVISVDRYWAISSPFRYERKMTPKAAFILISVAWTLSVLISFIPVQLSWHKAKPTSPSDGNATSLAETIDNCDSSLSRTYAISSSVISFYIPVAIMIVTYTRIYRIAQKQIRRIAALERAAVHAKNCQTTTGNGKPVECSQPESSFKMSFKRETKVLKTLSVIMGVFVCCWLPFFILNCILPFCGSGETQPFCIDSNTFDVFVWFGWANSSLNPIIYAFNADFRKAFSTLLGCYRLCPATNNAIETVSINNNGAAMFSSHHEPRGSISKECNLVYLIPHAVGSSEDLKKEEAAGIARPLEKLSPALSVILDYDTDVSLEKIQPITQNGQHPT

Structure (SMILES)	AC50 (D(1A) dopamine receptor [1])	AC50 [2]	AC50 (Progesterone receptor [3])	AC50 (Adenosine receptor A3)	AC50 (Histamine H2 receptor)	AC50 [4]	AC50 (D(1A) dopamine receptor [5])	AC50 [6]	AC50 (Progesterone receptor [7])
Cc1oc(=O)oc1COC(=O)[C@@H]1N2C(=O)[C@@H](NC(=O)[C@H](N)c3ccccc3)[C@H]2SC1(C)C [LENAMPICILLIN]	> 30 µM	> 30 µM	> 30 µM	–	–	–	–	–	–
COc1ccc(OC)c(C(O)C(C)N)c1 (stereo not drawn) [METHOXAMINE]	> 30 µM	> 30 µM	> 30 µM	–	–	–	–	–	–
CC1(CCN2CCCCC2)C(=O)CCc2ccccc21 (stereo not drawn) [NEPINALONE]	> 30 µM	> 30 µM	> 30 µM	–	–	–	–	–	–
COC(=O)C[C@](O)(CCCC(C)(C)O)C(=O)O[C@@H]1C(OC)=C[C@]23CCCN2CCc2cc4c(cc2[C@H]13)OCO4 [OMACETAXINE MEPESUCCINATE]	> 30 µM	> 30 µM	> 30 µM	–	–	–	–	–	–
COc1cccc(C(=O)CCN[C@@H](C)[C@H](O)c2ccccc2)c1 [OXYFEDRINE]	16.4 µM	4.77 µM	> 30 µM	–	–	–	–	–	–
CC[N+](C)(CC)CCOC(=O)C(O)(c1ccccc1)C1CCCCC1 (stereo not drawn) [OXYPHENONIUM]	> 30 µM	> 30 µM	> 30 µM	–	–	–	–	–	–
C[C@@H]1C[C@H]2[C@@H]3C[C@H](F)C4=CC(=O)C=C[C@]4(C)[C@H]3[C@@H](O)C[C@]2(C)[C@@]1(O)C(=O)CO [PARAMETHASONE]	> 30 µM	> 30 µM	5.1 µM	–	–	–	–	–	–
CCC[C@H](N[C@@H](C)C(=O)N1[C@H](C(=O)O)C[C@@H]2CCCC[C@@H]21)C(=O)OCC [PERINDOPRIL]	> 30 µM	> 30 µM	> 30 µM	–	–	–	–	–	–
N[C@@H](Cc1ccccc1)C(=O)O [PHENYLALANINE]	> 30 µM	> 30 µM	> 30 µM	–	–	–	–	–	–
CCCn1cnc2c1c(=O)n(CCCCC(C)=O)c(=O)n2C [PROPENTOFYLLINE]	> 30 µM	> 30 µM	> 30 µM	–	–	–	–	–	–
Clc1ccc(C(Cn2ccnc2)OCc2csc3c(Cl)cccc23)c(Cl)c1 (stereo not drawn) [SERTACONAZOLE]	5.39 µM	2.89 µM	0.831 µM	–	–	–	–	–	–
CC(OCCN1CCCCCC1)(c1ccccc1)c1ccc(Cl)cc1 (stereo not drawn) [SETASTINE]	6.96 µM	21 µM	> 30 µM	–	–	–	–	–	–
COc1cc(C)c2c(Oc3cccc(C(F)(F)F)c3)c(OC)cc(NC(C)CCCN)c2n1 (stereo not drawn) [TAFENOQUINE]	16.4 µM	10.3 µM	4.23 µM	–	–	–	–	–	–
O=S1(=O)CCN(CN2CCS(=O)(=O)NC2)CN1 [TAUROLIDINE]	> 30 µM	> 30 µM	> 30 µM	> 30 µM	> 30 µM	> 30 µM	> 30 µM	> 30 µM	> 30 µM
CCCSc1nc(N[C@@H]2C[C@H]2c2ccc(F)c(F)c2)c2nnn([C@@H]3C[C@H](OCCO)[C@@H](O)[C@H]3O)c2n1 [TICAGRELOR]	14.9 µM	> 30 µM	7.6 µM	–	–	–	–	0.365 µM	–
c1ccc2c(SC3=NCCN3)c[nH]c2c1 [TINAZOLINE]	> 30 µM	> 30 µM	24 µM	–	–	–	–	–	–
COc1ccc2c(C(=S)N(C)CC(=O)O)cccc2c1C(F)(F)F [TOLRESTAT]	> 30 µM	> 30 µM	> 30 µM	–	–	–	–	–	–
